Patent publication US20160075689A1, “POLYMERASE, ENDONUCLEASE, AND HELICASE INHIBITORS AND METHODS OF USING THEREOF” (THE BOARD OF TRUSTEES OF THE UNIVERSITY OF ARKANSAS, priority 2013, published 2016)

Assays:
DNase I = molecular target: T1, DNase I (Homo sapiens, UniProt P24855); assay: Endonuclease screening assay, specificity; format: biochemical
T1 sequence (P24855 23-282): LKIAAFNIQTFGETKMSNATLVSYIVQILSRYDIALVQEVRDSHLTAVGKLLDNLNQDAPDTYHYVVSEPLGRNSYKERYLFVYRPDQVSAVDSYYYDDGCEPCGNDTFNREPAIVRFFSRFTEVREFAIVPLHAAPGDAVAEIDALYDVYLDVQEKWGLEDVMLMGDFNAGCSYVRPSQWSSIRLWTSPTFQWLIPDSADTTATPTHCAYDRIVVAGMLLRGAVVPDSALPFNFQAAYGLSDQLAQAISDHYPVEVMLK
Source text: (§1) Specificity of a potential inhibitor is important for any in vitro or in vivo application, and generally defines the usefulness of an inhibitor. To determine specificity of the inhibitors for the two EndoG inhibitors, PNR-3-80 and PNR-3-82, their IC50 values for EndoG were compared using the screening assay with the IC50 values for two other endonucleases, DNase I and DNAse II (FIG. 11). These endonucleases were chosen because they represent the majority of endonuclease activity in most mammalian cells and because of their availability as pure enzymes.
(§2) A reaction mixture was prepared in each well of a white 96-well plate (Costar, Corning, N.Y.) as follows: 0.25 μM Cy5.5-labeled oligonucleotide (described in US provisional patent filed Oct. 19, 2012, Ser. No. 61/716,097) 0.3 mM MgCl2, 10 mM Tris-HCl, pH 7.4, 1 μl DMSO containing 5 or 50 ng of test compound, and nuclease-free water for a total reaction volume of 100 μl. The background (negative control) and uninhibited EndoG samples were measured using DMSO only, or DMSO containing recombinant EndoG (4 μg/ml), respectively. After addition of EndoG, fluorescence intensity was kinetically measured on a Bio-Tek Synergy 4.0 plate reader at 37° C. and mean velocity (mRFU/min) within 20 min was automatically calculated by the plate reader. The background was subtracted prior to the calculation of EndoG activity (%). The percent of EndoG activity was calculated from the mean velocity of a compound divided by the mean velocity of DMSO with recombinant EndoG, and the obtained value multiplied by 100.

DNase II = molecular target: T2, DNase II (Homo sapiens, UniProt O00115); assay: Endonuclease screening assay, specificity; format: biochemical
T2 sequence (O00115 19-360): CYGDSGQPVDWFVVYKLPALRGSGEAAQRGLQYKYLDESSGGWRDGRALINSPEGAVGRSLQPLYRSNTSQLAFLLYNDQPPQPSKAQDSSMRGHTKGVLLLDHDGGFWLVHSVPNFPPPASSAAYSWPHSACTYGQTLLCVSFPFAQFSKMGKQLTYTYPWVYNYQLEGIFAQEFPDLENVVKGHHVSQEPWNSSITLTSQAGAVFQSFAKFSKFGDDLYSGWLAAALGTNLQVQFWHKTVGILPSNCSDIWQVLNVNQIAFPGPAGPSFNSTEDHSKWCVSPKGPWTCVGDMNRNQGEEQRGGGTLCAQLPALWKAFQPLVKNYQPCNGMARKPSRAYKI
Source text: as §1, §2

NS3 helicase = molecular target: T3, NS3 helicase (Hepatitis C virus genotype 1b, UniProt P26663); assay: Gel-based helicase assay; format: biochemical, HCV; settings: standard helicase assay
T3 construct: analyze the helicase activity of NS3 helicase in the presence of the compounds; made in house
Protocol: Benchtop unwinding assays were performed to analyze the helicase activity of NS3 helicase in the presence of the compounds. The unwinding reaction was initiated by mixing the right (N53, compound, assay buffer) and left (radiolabeled substrate, ATP, assay buffer) reactions, which was then quenched. The ssDNA product formed over time is separated from dsDNA substrate by 20% native PAGE. The ratio of dsDNA substrate to ssDNA product is quantified using ImageQuant and the fraction of substrate unwound at each time-point is plotted as a function of time using Kaleidagraph software.

NS3-4A = NS3-4A (Hepatitis C virus genotype 1b, UniProt P26663); assay: NS3 protease activity assay; format: biochemical, HCV; settings: 25 μM compound, 50 nM NS3-4A, 100 nM substrate
Protocol: The protease activity of NS3 was analyzed in the presence of 25 μM ITBA-3-79, ITBA-3-82 or ITBA-3-85 by using 50 nM NS3-4A and 100 nM substrate (Ac-Asp-Glu-Asp-EDANS-Glu-Glu-Abu-L-Lactoyl-Ser-Lys DABCYL-NH2). The emission spectra of EDANS and the absorption spectra of DABCYL overlap making the peptide internally quenched. Cleaving of the substrate by the protease results in an increase in fluorescence that can be measured (λex−355 nm; λem, −500 nm). Telapravir (10 μM) was used as a positive control.

RNase A = assay: Ribonuclease A activity in NRK-52E cell extract; format: biochemical; settings: 0.1 μM and 10 μM
Protocol: (§3) As a follow up to Example 8, the effects of the EndoG inhibitors PNR-3-80 and PNR-3-82, at 0.1 μM and 10 μM each, on the activities of four other enzymes including RNase A, protease, LDH, and SOD in NRK-52E cell extract were examined. NRK-52E cells were grown to ˜80% confluence in […]. The medium was aspirated and the cells were rinsed with ice cold 1×PBS, pH 7.4. The cells were lysed in 50 mM Tris-HCl, pH 7.4, 150 mM NaCl, 1% Triton X-100 for 10 min on ice and then briefly sonicated. Cell debris was removed by centrifugation at 13,000×g for 10 min at 4° C. The supernatant was collected and stored at −80° C. until use. LDH, Protease, Superoxide dismutase (SOD), and Ribonuclease A (RNase A) activities were measured by using CytoTox 96® Non-Radioactive Cytotoxicity Assay kit (Promega, Madison, Wis.), Protease Fluorescent Detection kit (Sigma-Aldrich, Saint Louis, Mo.), SOD determination kit (Sigma-Aldrich, Saint Louis, Mo.), and Ribonuclease A Detection kit (Sigma-Aldrich, Saint Louis, Mo.), respectively, according to the manufacturer's instructions.

protease = assay: Protease activity in NRK-52E cell extract; format: biochemical; settings: 0.1 μM and 10 μM
Protocol: as §3

LDH = LDH activity in NRK-52E cell extract; format: biochemical; settings: 0.1 μM and 10 μM
Protocol: as §3

SOD = SOD activity in NRK-52E cell extract; format: biochemical; settings: 0.1 μM and 10 μM
Protocol: as §3

[1] = system: EndoG-expressing PC3 cells; assay: Cytoprotection against Docetaxel-induced cell death, LDH release and TUNEL assays; format: cell-based, human; settings: Docetaxel 80 μM, inhibitor 50 μM
Protocol: Docetaxel is an anti-cancer drug used to treat prostate cancer. Human invasive prostate cancer PC3 cells are known to be resistant to anticancer drugs. […] The resulting EndoG-expressing PC3 cells were exposed with Docetaxel (80 μM) in the absence or presence of the inhibitors, PNR-3-80 or PNR-3-82 (50 μM each). The cell death was measured by using two methods, LDH release assay and TUNEL assay. […]

T3 sequence (P26663 1027-1657): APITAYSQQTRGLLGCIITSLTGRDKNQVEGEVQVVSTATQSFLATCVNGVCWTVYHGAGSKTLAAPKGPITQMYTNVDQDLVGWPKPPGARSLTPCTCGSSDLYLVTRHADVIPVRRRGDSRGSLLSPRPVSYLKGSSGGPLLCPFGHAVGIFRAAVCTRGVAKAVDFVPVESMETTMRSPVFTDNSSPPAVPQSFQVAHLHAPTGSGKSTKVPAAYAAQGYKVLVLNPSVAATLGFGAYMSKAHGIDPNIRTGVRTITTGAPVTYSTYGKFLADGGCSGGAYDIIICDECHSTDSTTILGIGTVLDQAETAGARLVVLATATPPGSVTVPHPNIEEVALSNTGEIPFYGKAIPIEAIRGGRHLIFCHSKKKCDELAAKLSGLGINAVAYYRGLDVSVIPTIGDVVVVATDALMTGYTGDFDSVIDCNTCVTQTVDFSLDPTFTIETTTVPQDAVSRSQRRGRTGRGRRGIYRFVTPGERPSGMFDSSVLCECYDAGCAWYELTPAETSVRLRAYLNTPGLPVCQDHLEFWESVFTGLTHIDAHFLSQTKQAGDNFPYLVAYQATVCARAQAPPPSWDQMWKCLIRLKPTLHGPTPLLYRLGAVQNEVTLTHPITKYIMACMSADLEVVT
NS3-4A, sequence (P26663 1027-1657): as above
NS3-4A, sequence (P26663 1658-1711): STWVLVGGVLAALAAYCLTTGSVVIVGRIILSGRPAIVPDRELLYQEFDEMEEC

## COc1ccc2c(c1)c(C=C1C(=O)NC(=S)NC1=O)cn2C(=O)c1ccc2ccccc2c1 [PNR-3-82]
DNase I
  IC50: 63.3 µM
DNase II
  effect on DNase II activity: did not have any effect
NS3 helicase
  NS3 helicase activity, gel electrophoresis: confirmed the inhibition
NS3-4A
  NS3 protease activity: do not block protease activity
RNase A
  RNase A activity: none of the two tested compounds had any inhibiting activity
protease
  protease activity: none of the two tested compounds had any inhibiting activity
LDH
  LDH activity: none of the two tested compounds had any inhibiting activity
SOD
  SOD activity: none of the two tested compounds had any inhibiting activity
[1]
  cytoprotection against Docetaxel-induced cell death: cytoprotective
